Values of other authors as cited in patent US20100130528A1, “ADAMANTANE MODULATORS OF NMDA RECEPTOR AND/OR 5HT3 RECEPTOR” (AUSPEX PHARMACEUTICALS, INC., priority 2008, published 2010).

Tests used:
[1] = in man
[2] = in vivo

SMILES: CC12CC3CC(C)(C1)CC(N)(C3)C2 [memantine, 1-amino-3,5-dimethyl-adamantane]
- circulating memantine-related material present as the parent compound [1]: about 80%
- adverse effects [2]: fatigue, pain, hypertension, dizziness, headache, constipation, vomiting, confusion, somnolence, hallucination, cough, and dyspnea
- cytochrome P450 catalysed metabolism (cytochrome P450): No cytochrome P450 catalysed metabolism has been detected
